Five molecules from patent publication US11382328B2, “Rapid drug discovery methods for pathogen inactivation” (priority 2019, dated 2022) can be followed below.

In this experiment the test system is E. coli strain W3110. Nature of the experiment: Synergy assays: Biolog chemical sensitivity panels with Group IB metal, coefficient of drug interaction (CDI) from relative growth. The class given is cell-based. Particulars: for CDI (coefficient of drug interaction), gold + biocide: Gold (μM); for CDI (coefficient of drug interaction), copper mixed with biocide: Copper (mM) section.

Where [1] appears, read: Copper (mM), 1st of 3 copper concentrations (head line not shown), biocide concentration 1 of 4, E. coli.
Setting [2] is: Copper (mM), 1st of 3 copper concentrations (head line not shown), biocide concentration 2 of 4, E. coli.
[3] abbreviates: Copper (mM), 1st of 3 copper concentrations (head line not shown), biocide concentration 3 of 4, E. coli.
[4] abbreviates: Copper (mM), 1st of 3 copper concentrations (head line not shown), biocide concentration 4 of 4, E. coli.
The mark [5] stands for this setting: Copper (mM), 2nd of 3 copper concentrations (head line not shown), biocide concentration 1 of 4, E. coli.
[6] abbreviates: Copper (mM), 2nd of 3 copper concentrations (head line not shown), biocide concentration 2 of 4, E. coli.
The mark [7] stands for this setting: Copper (mM), 2nd of 3 copper concentrations (head line not shown), biocide concentration 3 of 4, E. coli.
[8] abbreviates: Copper (mM), 2nd of 3 copper concentrations (head line not shown), biocide concentration 4 of 4, E. coli.
Where [9] appears, read: Copper (mM), 3rd of 3 copper concentrations (head line not shown), biocide concentration 1 of 4, E. coli.
Setting [10] is: Copper (mM), 3rd of 3 copper concentrations (head line not shown), biocide concentration 2 of 4, E. coli.
[11] abbreviates: Copper (mM), 3rd of 3 copper concentrations (head line not shown), biocide concentration 3 of 4, E. coli.
Setting [12] is: Copper (mM), 3rd of 3 copper concentrations (head line not shown), biocide concentration 4 of 4, E. coli.
Setting [13] is: Gold section of Table 5, first of three gold concentrations (μM, value not given), biocide concentration 3 of 4.
The mark [14] stands for this setting: Gold section of Table 5, first of three gold concentrations (μM, value not given), biocide concentration 4 of 4.
[15] abbreviates: Gold section of Table 5, second of three gold concentrations (μM, value not given), biocide concentration 3 of 4.
[16] abbreviates: Gold section of Table 5, second of three gold concentrations (μM, value not given), biocide concentration 4 of 4.
The mark [17] stands for this setting: Gold section of Table 5, third of three gold concentrations (μM, value not given), biocide concentration 3 of 4.
Where [18] appears, read: Gold section of Table 5, third of three gold concentrations (μM, value not given), biocide concentration 4 of 4.
The mark [19] stands for this setting: Silver 0.5 μM, biocide concentration 1 of 4.
The mark [20] stands for this setting: Silver 0.5 μM, biocide concentration 2 of 4.
Where [21] appears, read: Silver 0.5 μM, biocide concentration 3 of 4.
Where [22] appears, read: Silver 0.5 μM, biocide concentration 4 of 4.
Where [23] appears, read: Silver 1.0 μM, biocide concentration 1 of 4.
The mark [24] stands for this setting: Silver 1.0 μM, biocide concentration 2 of 4.
The mark [25] stands for this setting: Silver 1.0 μM, biocide concentration 3 of 4.
Where [26] appears, read: Silver 1.0 μM, biocide concentration 4 of 4.
Setting [27] is: Silver 5.0 μM, biocide concentration 3 of 4.
Setting [28] is: Silver 5.0 μM, biocide concentration 4 of 4.
[29] abbreviates: first of 3 gold concentrations, biocide concentration 3 of 4.
Setting [30] is: first of 3 gold concentrations, biocide concentration 4 of 4.
Setting [31] is: second of 3 gold concentrations, biocide concentration 3 of 4.
[32] abbreviates: second of 3 gold concentrations, biocide concentration 4 of 4.
The mark [33] stands for this setting: third of 3 gold concentrations, biocide concentration 3 of 4.
Setting [34] is: third of 3 gold concentrations, biocide concentration 4 of 4.

For the molecule `O=S(=O)(F)Cc1ccccc1` [PMSF], the “CDI (coefficient of drug interaction)” value stood at 0.76 under setting [1]; 0.71 under setting [2]; 0.62 under setting [3]; 0.71 under setting [4]; 0.59 under setting [5]; 0.58 under setting [6]. The “CDI (coefficient of drug interaction)” value reads like this: under setting [7], 0.37; under setting [8], 0.46; under setting [9], 0.41; under setting [10], 0.42; under setting [11], 0.34; under setting [12], 0.38. Besides, the “CDI (coefficient of drug interaction)” value by setting is: (Gold section of Table 5, first of three gold concentrations (μM, value not given), biocide concentration 1 of 4) 1.07; (Gold section of Table 5, first of three gold concentrations (μM, value not given), biocide concentration 2 of 4) 0.96; under setting [13], 0.93; under setting [14], 0.74; (Gold section of Table 5, second of three gold concentrations (μM, value not given), biocide concentration 1 of 4) 1.03; (Gold section of Table 5, second of three gold concentrations (μM, value not given), biocide concentration 2 of 4) 1.05. The “CDI (coefficient of drug interaction)” value under setting [15] worked out at 1.11; the “CDI (coefficient of drug interaction)” value under setting [16] turned out to be 0.85; the “CDI (coefficient of drug interaction)” value (Gold section of Table 5, third of three gold concentrations (μM, value not given), biocide concentration 1 of 4) worked out at 1.07; the “CDI (coefficient of drug interaction)” value (Gold section of Table 5, third of three gold concentrations (μM, value not given), biocide concentration 2 of 4) is given as 1.16; the “CDI (coefficient of drug interaction)” value under setting [17] came out at 1.21; the “CDI (coefficient of drug interaction)” value under setting [18] is reported as 2.21. For the same molecule, the CDI runs as follows: under setting [19], 0.91; under setting [20], 0.92; under setting [21], 1.10; under setting [22], 0.35; under setting [23], 1.03; under setting [24], 1.10. The CDI by setting is: under setting [25], 1.06; under setting [26], 0.55; under setting [27], 1.25; under setting [28], 0.60.

`c1ccc(-c2nn(-c3ccccc3)[n+](-c3cccc4ccccc34)n2)cc1` [Tetrazolium violet]: the “CDI (coefficient of drug interaction)” value is reported as “Tox” under setting [3]; “Tox” under setting [4]; “Tox” under setting [7]; “Tox” under setting [8]; “Tox” under setting [11]; “Tox” under setting [12]. Besides, the “CDI (coefficient of drug interaction), gold + biocide” value (from here on “CDI … gold + biocide”) was “Tox” under setting [29]; “Tox” under setting [30]; “Tox” under setting [31]; “Tox” under setting [32]; “Tox” under setting [33]; “Tox” under setting [34]. Moreover, the CDI entry by setting is: under setting [21], “Tox”; under setting [22], “Tox”; under setting [25], “Tox”; under setting [26], “Tox”; under setting [27], “Tox”; under setting [28], “Tox”.

With `CCCCC(CC)CNC(=N)NC(=N)NCCCCCCNC(=N)NC(=N)NCC(CC)CCCC` (stereo not shown) [alexidine], the “CDI (coefficient of drug interaction), copper mixed with biocide” value is given as “Tox” (1st of 3 copper concentrations (value not shown), 3rd of four biocide concentrations); “Tox” (1st of 3 copper concentrations (value not shown), 4th of four biocide concentrations); “Tox” (2nd of 3 copper concentrations (value not shown), 3rd of four biocide concentrations); “Tox” (2nd of 3 copper concentrations (value not shown), 4th of four biocide concentrations); “Tox” (3rd of 3 copper concentrations (value not shown), 3rd of four biocide concentrations); “Tox” (3rd of 3 copper concentrations (value not shown), 4th of four biocide concentrations). The “CDI (coefficient of drug interaction)” value is given as “Tox” under setting [13]; “Tox” under setting [14]; “Tox” under setting [15]; “Tox” under setting [16]; “Tox” under setting [17]; “Tox” under setting [18]. Further, the “CDI (coefficient of drug interaction), silver + biocide” value runs as follows: (Silver 0.5 μM, 3rd of four biocide concentrations, E. coli) “Tox”; (Silver 0.5 μM, 4th of four biocide concentrations, E. coli) “Tox”; (Silver 1.0 μM, 3rd of four biocide concentrations, E. coli) “Tox”; (Silver 1.0 μM, 4th of four biocide concentrations, E. coli) “Tox”; (Silver 5.0 μM, 3rd of four biocide concentrations, E. coli) “Tox”; (Silver 5.0 μM, 4th of four biocide concentrations, E. coli) “Tox”.

Consider `NCC[C@H](O)C(=O)N[C@@H]1C[C@H](N)[C@@H](O[C@H]2O[C@H](CN)[C@@H](O)[C@H](O)[C@H]2O)[C@H](O)[C@H]1O[C@H]1O[C@H](CO)[C@@H](O)[C@H](N)[C@H]1O` [amikacin], for which the “cell toxicity / growth curves with and without silver” value was “enhanced cell toxicity”.

On to `CC1(C)S[C@@H]2[C@H](NC(=O)[C@H](NC(=O)N3CCNC3=O)c3ccccc3)C(=O)N2[C@H]1C(=O)O` [aziocillin], for which the “CDI (coefficient of drug interaction)” value is 0.97 under setting [1]; 1.05 under setting [2]; 1.08 under setting [3]; “Tox” under setting [4]; 0.94 under setting [5]; 0.90 under setting [6]. Further, the “CDI (coefficient of drug interaction)” value runs as follows: under setting [7], 0.97; under setting [8], “Tox”; under setting [9], 0.78; under setting [10], 0.70; under setting [11], 0.61; under setting [12], “Tox”. In addition, the “CDI … gold + biocide” value is reported as 0.92 (first of 3 gold concentrations, biocide concentration 1 of 4); 1.01 (first of 3 gold concentrations, biocide concentration 2 of 4); 0.94 under setting [29]; 0.64 under setting [30]; 1.05 (second of 3 gold concentrations, biocide concentration 1 of 4); 1.09 (second of 3 gold concentrations, biocide concentration 2 of 4). Further, the “CDI … gold + biocide” value is 0.89 under setting [31]; 0.64 under setting [32]; 0.94 (third of 3 gold concentrations, biocide concentration 1 of 4); 0.93 (third of 3 gold concentrations, biocide concentration 2 of 4); 0.93 under setting [33]; 0.47 under setting [34]. For the same molecule, the CDI is 0.90 under setting [19]; 1.07 under setting [20]; “Tox” under setting [22]; 0.97 under setting [23]; 0.90 under setting [24]; 1.14 under setting [25]. Moreover, the CDI result is reported as “Tox” under setting [26]; 1.03 (Silver 5.0 μM, biocide concentration 1 of 4); 1.08 (Silver 5.0 μM, biocide concentration 2 of 4); 0.70 under setting [27]; “Tox” under setting [28].
